Assay results as given in ChEMBL document CHEMBL1153880, “Synthesis and adrenolytic activity of 1-(1H-indol-4-yloxy)-3-{[2-(2-methoxyphenoxy)ethyl]amino}propan-2-ol and its enantiomers. Part 1” (Eur J Med Chem, 2009).
The source made the active and inactive calls. No cut-off for these calls is given here.

Experiments:
Rattus norvegicus [1] = assay: Effect on heart rate in anaesthetized Wistar rat assessed as number of beats per minute at 1 mg/kg, iv after 5 mins by electrocardiography; format: functional
[2] = target: T1, Adrenergic receptor alpha-2 (Rattus norvegicus, UniProt P22086+P19328+P22909); assay: Displacement of [3H]clonidine from alpha2 adrenergic receptor in rat cerebral cortex by liquid scintillation method; format: tissue-based
T1 sequence (P22086 whole entry): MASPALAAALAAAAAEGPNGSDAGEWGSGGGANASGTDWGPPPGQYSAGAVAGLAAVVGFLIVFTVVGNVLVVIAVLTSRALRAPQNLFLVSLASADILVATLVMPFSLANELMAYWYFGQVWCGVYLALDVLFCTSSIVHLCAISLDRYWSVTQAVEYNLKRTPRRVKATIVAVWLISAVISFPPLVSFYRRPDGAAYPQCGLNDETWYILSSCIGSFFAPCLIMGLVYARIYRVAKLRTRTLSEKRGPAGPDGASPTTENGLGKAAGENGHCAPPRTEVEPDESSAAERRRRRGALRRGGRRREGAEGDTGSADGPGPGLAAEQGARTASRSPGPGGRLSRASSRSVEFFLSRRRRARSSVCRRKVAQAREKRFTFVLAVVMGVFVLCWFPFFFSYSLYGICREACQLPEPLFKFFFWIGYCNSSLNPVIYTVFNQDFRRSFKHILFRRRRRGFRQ
T1 sequence (P19328 whole entry): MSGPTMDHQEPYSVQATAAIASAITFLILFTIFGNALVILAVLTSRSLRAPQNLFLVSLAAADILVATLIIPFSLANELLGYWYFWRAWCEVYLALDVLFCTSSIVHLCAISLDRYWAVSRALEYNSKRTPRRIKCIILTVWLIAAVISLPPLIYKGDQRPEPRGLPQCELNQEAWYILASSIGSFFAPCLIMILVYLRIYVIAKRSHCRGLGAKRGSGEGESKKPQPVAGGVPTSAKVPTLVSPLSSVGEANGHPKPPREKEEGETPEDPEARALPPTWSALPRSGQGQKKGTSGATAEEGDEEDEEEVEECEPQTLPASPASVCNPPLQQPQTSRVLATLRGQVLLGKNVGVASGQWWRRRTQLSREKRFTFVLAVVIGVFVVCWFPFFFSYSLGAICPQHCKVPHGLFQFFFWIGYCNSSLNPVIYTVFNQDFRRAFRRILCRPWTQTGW
T1 sequence (P22909 whole entry): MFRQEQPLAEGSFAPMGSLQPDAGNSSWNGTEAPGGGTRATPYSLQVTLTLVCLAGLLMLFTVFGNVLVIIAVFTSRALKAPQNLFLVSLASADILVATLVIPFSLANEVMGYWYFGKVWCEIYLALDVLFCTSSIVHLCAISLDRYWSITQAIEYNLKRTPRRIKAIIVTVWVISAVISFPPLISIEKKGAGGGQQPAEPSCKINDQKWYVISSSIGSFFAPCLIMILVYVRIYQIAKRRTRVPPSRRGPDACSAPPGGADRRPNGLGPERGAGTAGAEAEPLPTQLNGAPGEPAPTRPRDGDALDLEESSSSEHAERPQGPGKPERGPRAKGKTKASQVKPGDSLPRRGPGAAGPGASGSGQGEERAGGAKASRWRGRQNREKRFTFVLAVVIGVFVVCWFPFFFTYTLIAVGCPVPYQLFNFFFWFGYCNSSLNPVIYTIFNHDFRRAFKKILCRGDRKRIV

Rattus norvegicus [3] = assay: Hypotensive activity in anaesthetized normotensive Wistar rat assessed as decrease in diastolic pressure at 0.625 mg/kg, iv administered as single dose after 5 mins; format: functional; design: scale not given: the % may be the effect or the level left
Rattus norvegicus [4] = assay: Hypotensive activity in anaesthetized normotensive Wistar rat assessed as decrease in diastolic pressure at 0.125 to 1 mg/kg, iv administered as single dose after 5 mins; format: functional; design: scale not given: the % may be the effect or the level left; details: dose mg/kg 0.125-1
Rattus norvegicus [5] = assay: Hypotensive activity in anaesthetized normotensive Wistar rat assessed as decrease in diastolic pressure at 0.625 mg/kg, po administered as single dose after 5 mins; format: functional, organism-based; design: dose 0.625 mg/kg
Rattus norvegicus [6] = assay: Effect on electrocardiogram in anaesthetized Wistar rat assessed as change in QRS interval at 1 mg/kg, iv after 5 mins by electrocardiography; format: functional
Rattus norvegicus [7] = assay: Antiarrhythmic activity against adrenaline-induced arrhythmia in po dosed anaesthetized Wistar rat assessed as inhibition of premature ventricular beats pretreated 60 mins prior to adrenaline challenge; format: functional; details: Heart
Rattus norvegicus [8] = assay: Hypotensive activity in anaesthetized normotensive Wistar rat assessed as decrease in systolic pressure at 0.125 to 1 mg/kg, iv administered as single dose after 5 mins; format: functional; design: scale not given: the % may be the effect or the level left; details: dose mg/kg 0.125-1
Rattus norvegicus [9] = assay: Effect on electrocardiogram in anaesthetized Wistar rat assessed as change in P-Q-interval at 1 mg/kg, iv after 15 mins by electrocardiography; format: functional
Rattus norvegicus [10] = assay: Effect on electrocardiogram in anaesthetized Wistar rat assessed as change in QRS interval at 1 mg/kg, iv after 15 mins by electrocardiography; format: functional
Rattus norvegicus [11] = assay: Effect on electrocardiogram in anaesthetized Wistar rat assessed as change in Q-T interval at 1 mg/kg, iv after 5 mins by electrocardiography; format: functional
Rattus norvegicus [12] = assay: Hypotensive activity in anaesthetized normotensive Wistar rat assessed as decrease in systolic pressure at 0.625 mg/kg, iv administered as single dose after 5 mins; format: functional; design: scale not given: the % may be the effect or the level left
Rattus norvegicus [13] = assay: Effect on electrocardiogram in anaesthetized Wistar rat assessed as change in P-Q interval at 1 mg/kg, iv after 1 min by electrocardiography; format: functional
Rattus norvegicus [14] = assay: Hypotensive activity in anaesthetized normotensive Wistar rat assessed as reduction in epinephrine-induced pressor response at 1 mg/kg, iv after 5 mins; format: functional, organism-based; design: dose 1 mg/kg
Rattus norvegicus [15] = assay: Effect on electrocardiogram in anaesthetized Wistar rat assessed as change in P-Q-interval at 1 mg/kg, iv after 5 mins by electrocardiography; format: functional
Rattus norvegicus [16] = assay: Hypotensive activity in anaesthetized normotensive Wistar rat assessed as decrease in systolic pressure at 0.625 mg/kg, po administered as single dose after 5 mins; format: functional, organism-based; design: dose 0.625 mg/kg
Rattus norvegicus [17] = assay: Hypotensive activity in anaesthetized normotensive Wistar rat assessed as reduction in norepinephrine induced pressor response at 1 mg/kg, iv after 5 mins; format: functional, organism-based; design: dose 1 mg/kg
Rattus norvegicus [18] = assay: Hypotensive activity in anaesthetized normotensive Wistar rat assessed as decrease in systolic pressure at 0.125 to 1 mg/kg, po administered as single dose after 5 mins; format: functional, organism-based
Rattus norvegicus [19] = assay: Hypotensive activity in anaesthetized normotensive Wistar rat assessed as decrease in diastolic pressure at 0.125 to 1 mg/kg, po administered as single dose after 5 mins; format: functional, organism-based
[20] = Increase in frequency of contraction in rabbit intestine at 1 nM after 5 mins; format: functional, Oryctolagus cuniculus
[21] = Decrease in amplitude of contraction in rabbit intestine at 10 uM after 5 mins; format: functional, Oryctolagus cuniculus; design: scale not given: the % may be the effect or the level left
Rattus norvegicus [22] = assay: Hypotensive activity in anaesthetized normotensive Wistar rat assessed as decrease in diastolic pressure at 0.25 to 1 mg/kg, iv administered as single dose after 5 mins; format: functional; design: scale not given: the % may be the effect or the level left; details: dose mg/kg 0.25-1
Rattus norvegicus [23] = assay: Hypotensive activity in po dosed anaesthetized normotensive Wistar rat assessed as decrease in diastolic pressure administered as single dose after 5 mins; format: functional, organism-based
Rattus norvegicus [24] = assay: Hypotensive activity in po dosed anaesthetized normotensive Wistar rat assessed as decrease in systolic pressure administered as single dose after 5 mins; format: functional, organism-based

Question: For `COc1ccccc1OCCNC[C@H](O)COc1cccc2[nH]ccc12`, which Activity (Rattus norvegicus [1]) is on record?
Answer: Its Activity is 291.3 min⁻¹.

Question: What about the Ki [2] of the same molecule?
Answer: The Ki was 365.5 nM.

Question: And the Activity (Rattus norvegicus [3])?
Answer: Its Activity is 8%.

Question: And the Activity (Rattus norvegicus [4])?
Answer: The Activity was 14%.

Question: What about the Activity (Rattus norvegicus [5]) of the same molecule?
Answer: The Activity was “Active”.

Question: What about the Activity (Rattus norvegicus [6]) of the same molecule?
Answer: The Activity was 24.3 ms.

Question: What about the ED50 (Rattus norvegicus [7]) of the same molecule?
Answer: The ED50 was 0.61 mg/kg.

Question: And the Activity (Rattus norvegicus [8])?
Answer: Its Activity is 15%.

Question: What about the Activity (Rattus norvegicus [9]) of the same molecule?
Answer: The Activity was 48 ms.

Question: And the Activity (Rattus norvegicus [10])?
Answer: Its Activity is 22.7 ms.

Question: And the Activity (Rattus norvegicus [11])?
Answer: The Activity was 76.3 ms.

Question: What about the Activity (Rattus norvegicus [12]) of the same molecule?
Answer: The Activity was 8%.

Question: What about the Activity (Rattus norvegicus [13]) of the same molecule?
Answer: Its Activity is 52.3 ms.

Question: And the Activity (Rattus norvegicus [14])?
Answer: Its Activity is “Active”.

Question: And the Activity (Rattus norvegicus [15])?
Answer: Its Activity is 49.7 ms.

Question: And the Activity (Rattus norvegicus [16])?
Answer: Its Activity is “Active”.

Question: What about the Activity (Rattus norvegicus [17]) of the same molecule?
Answer: Its Activity is “Active”.

Question: For `COc1ccccc1OCCNCC(O)COc1cccc2[nH]ccc12` (racemic), which Activity (Rattus norvegicus [1]) is on record?
Answer: The Activity was 294.5 min⁻¹.

Question: What about the Ki [2] of the same molecule?
Answer: Its Ki is 1.4 nM.

Question: And the Activity (Rattus norvegicus [6])?
Answer: The Activity was 24.9 ms.

Question: What about the Activity (Rattus norvegicus [18]) of the same molecule?
Answer: Its Activity is “Active”.

Question: What about the ED50 (Rattus norvegicus [7]) of the same molecule?
Answer: The ED50 was 0.44 mg/kg.

Question: What about the Activity (Rattus norvegicus [19]) of the same molecule?
Answer: Its Activity is “Active”.

Question: What about the Activity (Rattus norvegicus [9]) of the same molecule?
Answer: Its Activity is 46.2 ms.

Question: And the Activity (Rattus norvegicus [10])?
Answer: Its Activity is 26.9 ms.

Question: And the Activity [20]?
Answer: Its Activity is 8%.

Question: And the Activity [21]?
Answer: The Activity was 29%.

Question: What about the Activity (Rattus norvegicus [11]) of the same molecule?
Answer: Its Activity is 69 ms.

Question: What about the Activity (Rattus norvegicus [22]) of the same molecule?
Answer: The Activity was 10%.

Question: What about the Activity (Rattus norvegicus [13]) of the same molecule?
Answer: Its Activity is 47.2 ms.

Question: What about the Activity (Rattus norvegicus [14]) of the same molecule?
Answer: Its Activity is “Active”.

Question: What about the Activity (Rattus norvegicus [15]) of the same molecule?
Answer: The Activity was 48.1 ms.

Question: What about the Activity (Rattus norvegicus [17]) of the same molecule?
Answer: Its Activity is “Active”.

Question: With `COc1ccccc1OCCNC[C@@H](O)COc1cccc2[nH]ccc12` as the molecule, how does the Activity (Rattus norvegicus [1]) read?
Answer: Its Activity is 310.2 min⁻¹.

Question: What about the Activity (Rattus norvegicus [23]) of the same molecule?
Answer: The Activity was “inactive”.

Question: What about the Ki [2] of the same molecule?
Answer: Its Ki is 467.3 nM.

Question: And the Activity (Rattus norvegicus [6])?
Answer: The Activity was 21.7 ms.

Question: What about the ED50 (Rattus norvegicus [7]) of the same molecule?
Answer: Its ED50 is 1.28 mg/kg.

Question: What about the Activity (Rattus norvegicus [9]) of the same molecule?
Answer: The Activity was 51.7 ms.

Question: What about the Activity (Rattus norvegicus [10]) of the same molecule?
Answer: Its Activity is 21.7 ms.

Question: And the Activity [21]?
Answer: The Activity was 31%.

Question: What about the Activity (Rattus norvegicus [11]) of the same molecule?
Answer: Its Activity is 66 ms.

Question: And the Activity (Rattus norvegicus [13])?
Answer: The Activity was 53.7 ms.

Question: What about the Activity (Rattus norvegicus [14]) of the same molecule?
Answer: Its Activity is “Active”.

Question: What about the Activity (Rattus norvegicus [15]) of the same molecule?
Answer: The Activity was 50.7 ms.

Question: What about the Activity (Rattus norvegicus [24]) of the same molecule?
Answer: Its Activity is “inactive”.
